Assay results published in patent US6267968A, “MDP derivatives and conjugates having haematipoietic function stimulating activity, and compositions containing same” (Vacsyn S.A., priority 1995, dated 2001).
“Also recorded” adds a separate entry of the source.

Experiments:
[1] = test system: circulating myelocytes (HSC); assay: Mobilization of HSC after combined oral treatment with AZT and Muradimetide (Example 4); type: in vivo, mice
Description: Table 3 below and FIG. 11 show the effect of an oral treatment of mice with Muradimetide before, at the same time as or after AZT administered at 50 mg per kg, on the number of circulating myelocytes tested 24 hours after 4 daily administrations.
The mean number of circulating myelocytes before the treatment lies between 3 and 15×10^4 cells per ml in the 5 groups.
The "P-value" was calculated by the Mann Whitney U Rank test.

[2] = test system: normal circulating leukocytes (predominantly neutrophils and lymphocytes) and immature circulating leukocytes (myelocytes); assay: Muradimetide administered alone intravenously for 4 consecutive days, circulating cell counts (Example 1); type: in vivo, mice; conditions: for No. of Lymphocytes / No. of Myelocytes / No. of Neutrophils: 25 mg/kg i.v.; for No. of Lymphocytes / No. of Myelocytes / No. of Neutrophils / No. of Leukocytes: 4 consecutive days; for No. of Leukocytes: Muradimetide 25 mg/kg i.v.
Description: Table 1 below depicts the leukocyte, neutrophil, lymphocyte and myelocyte counts as a function of the time after treatment with Muradimetide alone administered at a dose of 25 mg/kg. The treatment is performed for 4 consecutive days by intravenous injection.

[3] = test system: circulating leukocytes, neutrophils and myelocytes; assay: Oral Muradimetide with nonmyelotoxic or myelotoxic intravenous doses of AZT, cell counts (Example 8); type: in vivo, female Swiss mice; conditions: Muradimetide 25 mg per kg orally 4 hours before AZT i.v. 5 or 40 mg per kg, days 0-3
Description: In this experiment female Swiss mice were injected intravenously with AZT at a dose of 5 or 40 mg per kg on days 0, 1, 2 and 3. On each of the 4 days, and 4 hours before the administration of AZT, groups of mice consisting of 5 individuals received orally either buffer or Muradimetide at a dose of 25 mg per kg.
Cell counts are done on days 0, 1, 2, 3, 4 and 7.
FIG. 3 represents the same experiment in which the myelocytes are counted.

[4] = test system: circulating neutrophils, leukocytes, monocytes and myelocytes; assay: Comparison of Muradimetide and GM-CSF after intravenous AZT (Example 9); type: in vivo, female Swiss mice; conditions: AZT 40 mg per kg i.v. days 0-3; Muradimetide 25 mg per kg or mGM-CSF 125 μg per kg i.v. 4 hours before
Description: FIGS. 4, 5, 6 and 7 show the effect of a treatment of mice with Muradimetide or with mGM-CSF on the changes in the circulating neutrophils, in the circulating leukocytes or in the circulating monocytes or in the circulating myelocytes, respectively, after an intravenous administration of AZT.
Female Swiss mice were treated intravenously with 40 mg per kg of AZT on days 0, 1, 2 and 3. The groups of mice (5 per group) receive, 4 hours before AZT, either physiological saline, or Muradimetide at 25 mg per kg or mGM-CSF at 125 μg per kg intravenously. Counts are done on days 0, 2, 3, 4 and 8. The asterisks above the histograms indicate that there is a significant difference in the count compared to the values obtained before the treatment on day 0.

[5] = test system: circulating HSC (GM-CFU, LPP-CFU, HPP-CFU, CAFC, LTC-IC); assay: Mobilization of HSC by stage of differentiation, culture of blood mononuclear cells (Example 7); type: in vivo, Balb/c mice; conditions: AZT 50 mg/kg, MDM 25 mg/kg or mixture once daily for three days; blood 24 hours after last administration
Description: In all cases, the culture conditions, especially their duration, were chosen to permit an optimal detection of the different populations in question. For this study, the effect of injecting saline (X--), AZT at 50 mg/kg, MDM at 25 mg/kg and the mixture of the two on the number of circulating HSC were compared. The mononuclear cells after purification were cultured for 5 days in order to count the GM-CFU (for granulocyte-macrophage colony forming units), for 28 days to count the low proliferating potential (LPP) colony forming units and the high proliferating potential (HPP) CFU. The CAFC were counted after 14 days of culture. The LTC-IC after 28 days. The results are presented in FIGS. 14a, 14b, 14c and 14d, respectively. The mice (10 Balb/c per group) received once daily and for three consecutive days either physiological saline, or AZT, or MDM or the mixture of the two under the above dose conditions. Twenty-four hours after the last administration, the blood of all the mice in each group was collected. For the experiments depicted in FIGS. 14a, 14b and 14c, the mononuclear cells were then separated on density gradients and cultured in a semisolid medium for a period of 5 days for the GM-CFU and 28 days for the LPP-CFU. […]

COC(=O)CC[C@@H](NC(=O)[C@H](C)NC(=O)[C@@H](C)O[C@H]1[C@H](O)[C@@H](CO)OC(O)[C@@H]1NC(C)=O)C(=O)OC (stereo partly drawn) [Muradimetide, Nac--Mur--L--Ala--D--Glu--[OCH3]--OCH3]
effect on the mobilization of HSC (myelocyte count, FIG. 11) ([1]; MDM 25 mg/kg, AZT 50 mg/kg or mixture, oral, days 0-3 and 7-10 (2 weeks)): significant effect
No. of circulating myelocytes ([1]; p.o., one compound alone at 0 h (AZT 50 mg/Kg or Muradimetide 25 mg/Kg), 24 hours after 4 daily administrations): 17 ± 15 × 10^4 /ml
No. of Lymphocytes ([2]; day 0): 38 ± 12 × 10^5 /ml
No. of Myelocytes ([2]; day 0): 7 ± 6 × 10^4 /ml
No. of Neutrophils ([2]; day 0): 11 ± 3 × 10^5 /ml
No. of Lymphocytes ([2]; day 2): 41 ± 17 × 10^5 /ml
No. of Myelocytes ([2]; day 2): 8 ± 8 × 10^4 /ml
No. of Neutrophils ([2]; day 2): 10 ± 3 × 10^5 /ml
No. of Lymphocytes ([2]; day 3): 35 ± 13 × 10^5 /ml
No. of Myelocytes ([2]; day 3): 40 ± 5 × 10^4 /ml
No. of Neutrophils ([2]; day 3): 13 ± 5 × 10^5 /ml
No. of Lymphocytes ([2]; day 4): 34 ± 8 × 10^5 /ml
No. of Myelocytes ([2]; day 4): 72 ± 27 × 10^4 /ml
No. of Neutrophils ([2]; day 4): 12 ± 4 × 10^5 /ml
No. of Lymphocytes ([2]; day 7): 38 ± 10 × 10^5 /ml
No. of Myelocytes ([2]; day 7): 4 ± 4 × 10^4 /ml
No. of Neutrophils ([2]; day 7): 12 ± 4 × 10^5 /ml
No. of Leukocytes ([2]; day 2): 52 ± 12 × 10^5 /ml
No. of Leukocytes ([2]; day 3): 52 ± 17 × 10^5 /ml
No. of Leukocytes ([2]; day 4): 52 ± 15 × 10^5 /ml
No. of Leukocytes ([2]; day 7): 50 ± 13 × 10^5 /ml
No. of Leukocytes ([2]; day of measurement 0): 50 ± 14 × 10^5 /ml
increase in the number of circulating myelocytes ([2]; Muradimetide administered alone, days 3 and 4): highly significant
time of maximum effect on leukocyte, neutrophil and myelocyte counts (FIGS. 1-3) [3]: 4 days
HSC in the blood (circulating myelocytes, FIG. 7) [4]: very strong elevation; also recorded: mobilizes HSC
leukocyte and neutrophil counts [4]: markedly pronounced effect
effect on the number of circulating HSC (GM-CFU, LPP-CFU, HPP-CFU, CAFC; FIGS. 14a-14d) [5]: clearly apparent
